pKi: −log10 of the molar value.

One data set addresses Serine protease 1 (Homo sapiens, UniProt P07477). Description: Binding affinity against trypsin in an enzyme inhibition assay.
Another data set has as its target Coagulation factor X (Homo sapiens, UniProt P00742). Put plainly: Binding affinity against Coagulation factor X in an enzyme inhibition assay.
Data set [1] is described as follows: Clearance rate in rabbits. In kind it is ADME, organism-based, Oryctolagus cuniculus. The conditions noted are these: rabbit, in vivo.
Data set [2] can be described thus: Half life value in rabbits. The conditions noted are these: rabbit, in vivo. Format: ADME, Oryctolagus cuniculus.
The species entered for another data set is Oryctolagus cuniculus. Put plainly: Compound was tested for its effect in rabbit arterio-venous (A-V) shunt thrombosis model and the inhibitory dose was reported. Format: functional.

Serine protease 1, sequence (P07477 whole entry): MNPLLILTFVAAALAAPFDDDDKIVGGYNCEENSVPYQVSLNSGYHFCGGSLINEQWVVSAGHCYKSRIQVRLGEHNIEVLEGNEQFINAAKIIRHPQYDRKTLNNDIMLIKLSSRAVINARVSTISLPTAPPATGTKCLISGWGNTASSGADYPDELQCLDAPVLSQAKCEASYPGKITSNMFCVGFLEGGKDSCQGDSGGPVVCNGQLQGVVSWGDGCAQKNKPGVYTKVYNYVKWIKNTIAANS
Coagulation factor X, sequence (P00742 41-179 limits assumed): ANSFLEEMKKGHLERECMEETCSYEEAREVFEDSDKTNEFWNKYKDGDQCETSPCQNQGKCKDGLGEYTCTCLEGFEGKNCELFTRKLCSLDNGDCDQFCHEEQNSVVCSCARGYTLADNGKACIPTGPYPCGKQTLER
Coagulation factor X, sequence (P00742 235-488 limits assumed): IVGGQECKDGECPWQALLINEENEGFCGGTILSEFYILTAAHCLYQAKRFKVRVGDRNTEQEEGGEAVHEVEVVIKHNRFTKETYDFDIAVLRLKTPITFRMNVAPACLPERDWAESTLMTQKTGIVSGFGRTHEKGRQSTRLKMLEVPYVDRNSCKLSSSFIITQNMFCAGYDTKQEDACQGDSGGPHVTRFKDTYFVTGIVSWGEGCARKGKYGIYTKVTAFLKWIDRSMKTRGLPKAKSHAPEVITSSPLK

As usually defined, the pKi is the negative decadic logarithm of the Ki, by convention in mol/L. Low values mean a high Ki, high ones a low Ki. The clearance is a measure of how efficiently the substance is removed, as volume per time. Higher therefore signals efficient removal. What is called half-life is how long it takes for the measured level to halve. As for `CC(C)OC(=O)[C@@H]1CN(Cc2ccc(-c3ccccc3S(N)(=O)=O)cc2)O[C@H]1c1cccc(C(=N)N)c1.O=C(O)C(F)(F)F.O=C(O)C(F)(F)F`, the values for the pKi at Serine protease 1 and on Coagulation factor X were 7.03 and 8.74, respectively. The clearance in data set [1] is above 33.3 mL/min/kg. The same compound had a half-life in data set [2] below 1 h.

Regarding `CC(=O)[C@@H]1CN(Cc2ccc(-c3ccccc3S(N)(=O)=O)cc2)C[C@H]1c1cccc(C(=N)N)c1`, the pKi was 6.70 at Serine protease 1 and 7.44 on Coagulation factor X.

The compound `COC(=O)CN(CCCc1ccc(-c2ccccc2S(N)(=O)=O)cc1)c1cccc(C(=N)N)c1` gave a pKi at Coagulation factor X of 8.89.

Take `N=C(N)c1cccc([C@@H]2CN(Cc3ccc(-c4ccccc4S(N)(=O)=O)cc3)C[C@H]2C(N)=O)c1`: the values for the pKi on Serine protease 1 and at Coagulation factor X were 6.30 and 6.82, respectively.

On to `COC(=O)[C@H]1CN(Cc2ccc(-c3ccccc3S(N)(=O)=O)cc2)C[C@H]1c1cccc(C(=N)N)c1`, for which the pKi is below 5.80 on Serine protease 1 and 6.77 on Coagulation factor X.

Regarding `CN(C)C(=O)[C@@H]1CN(Cc2ccc(-c3ccccc3S(N)(=O)=O)cc2)C[C@H]1c1cccc(C(=N)N)c1`, the pKi on Coagulation factor X was 6.40.

On to `CCOC(=O)[C@]1(C)CN(Cc2ccc(-c3ccccc3S(N)(=O)=O)cc2)C[C@H]1c1cccc(C(=N)N)c1`, for which the pKi was 6.12 at Serine protease 1 and 7.59 on Coagulation factor X.

On to `CC(C)OC(=O)[C@@H]1CN(Cc2ccc(-c3ccccc3S(N)(=O)=O)cc2)C[C@H]1c1cccc(C(=N)N)c1.O=C(O)C(F)(F)F.O=C(O)C(F)(F)F`, for which the results for the pKi on Serine protease 1 and on Coagulation factor X were 7.01 and 8.24, respectively. The clearance in data set [1] is above 33.3 mL/min/kg. In data set [2], this compound returned a half-life below 1 h.

As to `N=C(N)c1cccc([C@@H]2CN(Cc3ccc(-c4ccccc4S(N)(=O)=O)cc3)C[C@@H]2C(=O)O)c1`, the pKi on Coagulation factor X was 6.34.

Consider `COC(=O)[C@H]1CN(Cc2ccc(-c3ccccc3S(N)(=O)=O)cc2)C[C@@H]1c1cccc(C(=N)N)c1`, for which the pKi at Serine protease 1 was 6.70; at Coagulation factor X, 7.89.

Turning to `COC(=O)[C@@H]1CN(Cc2ccc(-c3ccccc3S(N)(=O)=O)cc2)O[C@H]1c1cccc(C(=N)N)c1`, the pKi is 7.16 on Serine protease 1 and 8.51 on Coagulation factor X.

Regarding `CCCCOC(=O)[C@@H]1CN(Cc2ccc(-c3ccccc3S(N)(=O)=O)cc2)C[C@H]1c1cccc(C(=N)N)c1`, the pKi on Serine protease 1 was 6.96; on Coagulation factor X, 7.92.

At Coagulation factor X, `N=C(N)c1cccc([C@@H]2CN(Cc3ccc(-c4ccccc4S(N)(=O)=O)cc3)C[C@H]2C(=O)O)c1` had a pKi of 6.22.

Turning to `COC(=O)[C@@H]1CN(Cc2ccc(-c3ccccc3S(N)(=O)=O)cc2)C[C@H]1c1cccc(C(=N)N)c1.O=C(O)C(F)(F)F.O=C(O)C(F)(F)F` (stereo in doubt; 10), in the data set listed under Oryctolagus cuniculus, the ID50 was above 1.4 µM/h/kg. In addition, the pKi was 7.20 on Serine protease 1 and 8.32 at Coagulation factor X.

`COC(=O)[C@@H]1CN(Cc2ccc(-c3ccccc3S(N)(=O)=O)cc2)C[C@H]1c1cccc(C(=N)N)c1` (stereo in doubt; 15): the pKi was 7.28 on Serine protease 1 and 8.47 on Coagulation factor X.

(Values after ChEMBL document CHEMBL1131683, “Preparation of pyrrolidine and isoxazolidine benzamidines as potent inhibitors of coagulation factor Xa” (Bioorg Med Chem Lett, 1999).)
